Test system: OA patient-derived fibroblast-like synovial cells (HFLS-OA)
Assay: Inflammatory cytokine and MMP gene expression induction by LPA in human OA synovial cells
Assay type: cell-based
Procedure: The inflammatory cytokine expression induction reaction of LPA, which is a ligand of EDG2, in OA patient-derived fibroblast-like synovial cells was analyzed. The method used is described below. OA patient-derived fibroblast-like synovial cells (HFLS-OA) were purchased from Cell application Co. The HFLS-OA was cultured using the attached Synoviocyte growth medium. The number of passages for the cells used was 4 or 5. The HFLS-OA was seeded to a 24-well plate at a ratio of 1×10^5 cells/well, and cultured using the attached Synoviocyte growth medium until they became confluent. Twelve hours before performing LPA stimulation, the medium was replaced with Ham's F-12 (Invitrogen) medium containing 0.1% fatty acid free bovine serum albumin (Sigma). In the time-related change analysis, 12 hours after the medium replacement, the cells were stimulated with 10 μM LPA; 0, 1, 2, 4, 8, 12 and 24 hours later, total RNA was extracted using ISOGEN (Nippon Gene), and the amounts expressed of the TNFA, IL1B, and IL6 genes, which are inflammatory cytokine genes, and of the MMP1, MMP3, and MMP13 genes, which are Matrix metalloproteinase (MMP) genes, were quantified by a method in accordance with Example 10 (n=4). In the dose dependency test, 12 hours after the medium replacement, the cells were stimulated with 0, 0.1, 0.3, 1, 3 and 10 μM LPA; 2 hours later, total RNA was extracted using ISOGEN (Nippon Gene), and the amounts expressed of the TNFA, IL1B, and IL6 genes, which are inflammatory cytokine genes, were quantified in the same manner as the above for the time-related change test (n=3). As a result of the time-related change test of inflammatory cytokine genes with LPA stimulation, the amounts of TNFA, IL1B and IL6 expressed rose transiently, with peaks reached 2, 4 and 1 hour later, respectively (FIGS. 8a, b and c). The amounts expressed of the MMP1, MMP3, and MMP13 genes, which are MMP genes, rose transiently, with peaks reached 8, 8 and 4 hours later, respectively (FIGS. 8d, e and f). It is known that in synovial cells, MMP genes have the expression thereof increased by inflammatory cytokines. In this experiment, the rise in the expression of the inflammatory cytokine genes preceded the rise in the expression of the MMP genes; therefore, the rise in the expression of MMP genes with LPA stimulation may be a secondary reaction via an inflammatory cytokine. As a result of the dose dependency test, it was shown that LPA raises the expression of inflammatory cytokine genes dose-dependently (FIGS. 8g, h and i). The amounts expressed of the TNFA and IL1B genes nearly reached a plateau at 1 μM, whereas the expression of the IL6 gene rose dose-dependently up to 10 μM. […] From this finding, it is thought that the inflammatory cytokine gene group induction reaction of LPA is very highly likely to be a reaction mediated mainly by the EDG2 gene.

## CCCCCCCC/C=C\CCCCCCCC(=O)OC[C@@H](O)COP(=O)(O)O [LPA, 1-Oleoyl-sn-Glycero-3-Phosphate]
0, 0.1, 0.3, 1, 3 and 10 μM LPA, 2 hours, n=3
  rise of expression of inflammatory cytokine genes (TNFA, IL1B, IL6): dose-dependently
10 μM LPA, transient rise, n=4
  time of peak of IL1B expression: 4 h
  time of peak of IL6 expression: 1 h
  time of peak of MMP1 gene expression: 8 h
  time of peak of MMP3 gene expression: 8 h
  time of peak of MMP13 gene expression: 4 h
  time of peak of TNFA expression: 2 h
Dose dependency test, 2 hours
  LPA concentration at which IL1B gene expression nearly reached a plateau: 1 µM
  LPA concentration at which TNFA gene expression nearly reached a plateau: 1 µM
  LPA concentration up to which IL6 gene expression rose dose-dependently: up to 10 μM

From patent US20100239501A1, “GENE SENSITIVE TO BONE/JOINT DISEASE AND USE THEREOF” (RIKEN, priority 2007, published 2010)
